The values below come from patent US6806276B2, “2-oxoquinoline compounds and pharmaceutical uses thereof” (Japan Tobacco Inc., priority 1999, dated 2004).

The Ki is a dissociation constant, usually derived from enzyme kinetics or from competition with a known ligand.

The target in test [1] is T1, human central type cannabinoid receptor (hCB1) (Homo sapiens, UniProt P21554).
T1 construct: expressed in transfected cells; host or cells: CHO cells
The experiment in a line: Binding assay (in vitro), [3H]Win55212-2 displacement, membrane fractions of human CB1-CHO. The conditions noted are these: hCB1 expressed in CHO cells, [3H]Win55212-2 2 nM, 30° C. 90 minutes.
Procedure: (§1) Membrane fractions of human central type cannabinoid receptor (human CB1-CHO, hereinafter called hCB1) and human peripheral type cannabinoid receptor (human CB2-CHO, hereinafter called hCB2) expressed in CHO cells were used as samples. The reference material (hCB1: 20 μg/ml, hCB2: 5 μg/ml), labeled ligand ([^3H]Win55212-2, 2 nM) and unlabeled ligand Win55212-2 or test compound were added to a 24-well round bottom plate, and the plate was incubated at 30° C. for 90 minutes. 50 mM Tris-HB55 containing 0.2% BSA was used as an assay buffer. After incubation, the mixture was filtered (Packard, Unifilter 24GF/B) and dried, and then a scintillation solution (Packard, Microsint-20) was added thereto to determine the radioactivity of the sample (Packard, Top count A9912V). Nonspecific binding was determined by the addition of excessive amount of Win55212-2 (10 μM), and specific binding was calculated by subtracting the nonspecific binding from total binding determined by the addition of the labeled ligand only. The test compound was dissolved in DMSO to make the final concentration in DMSO to be 0.1%. IC50 value was determined from the proportion of the bound test compound in the specific binding, and K1 value of the test compound was calculated from the ICso value and Kd value of [^3H]Win55212-2. K1 value for the central type receptors/K1 value for peripheral type receptors (C/S) was also calculated as an indicator of the selectivity of the test compound for peripheral type receptors.

Test [2] deals with T2, human peripheral type cannabinoid receptor (hCB2) (Homo sapiens, UniProt P34972).
T2 construct: expressed in transfected cells; host or cells: CHO cells
T2 sequence (P34972 whole entry): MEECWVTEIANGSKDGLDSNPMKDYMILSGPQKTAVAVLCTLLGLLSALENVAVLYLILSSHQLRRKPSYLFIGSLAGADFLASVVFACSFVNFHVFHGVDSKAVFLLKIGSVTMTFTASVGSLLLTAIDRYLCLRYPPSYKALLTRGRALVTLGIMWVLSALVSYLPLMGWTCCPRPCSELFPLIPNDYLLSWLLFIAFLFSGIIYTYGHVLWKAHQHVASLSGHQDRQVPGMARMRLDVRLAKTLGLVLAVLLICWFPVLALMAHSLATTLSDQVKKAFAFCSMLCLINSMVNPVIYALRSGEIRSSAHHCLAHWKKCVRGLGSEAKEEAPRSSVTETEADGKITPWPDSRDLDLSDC
The test is described as follows: Binding assay (in vitro), [3H]Win55212-2 displacement, membrane fractions of human CB2-CHO. As to conditions: for Ki: hCB2 expressed in CHO cells, [3H]Win55212-2 2 nM, 30° C. 90 minutes.
Procedure: as §1

The mark [3] stands for this setting: Ki value Central type receptor (C).
Where [4] appears, read: Ki value Peripheral type receptor (S).
Where [5] appears, read: indicator of selectivity for peripheral type receptors.
Setting [6] is: read-out: Ki value Central type receptor (C).
The mark [7] stands for this setting: read-out: Ki value Peripheral type receptor (S).

Like-named read-outs stand apart in the source and are kept apart here.

T1 sequence (P21554 whole entry): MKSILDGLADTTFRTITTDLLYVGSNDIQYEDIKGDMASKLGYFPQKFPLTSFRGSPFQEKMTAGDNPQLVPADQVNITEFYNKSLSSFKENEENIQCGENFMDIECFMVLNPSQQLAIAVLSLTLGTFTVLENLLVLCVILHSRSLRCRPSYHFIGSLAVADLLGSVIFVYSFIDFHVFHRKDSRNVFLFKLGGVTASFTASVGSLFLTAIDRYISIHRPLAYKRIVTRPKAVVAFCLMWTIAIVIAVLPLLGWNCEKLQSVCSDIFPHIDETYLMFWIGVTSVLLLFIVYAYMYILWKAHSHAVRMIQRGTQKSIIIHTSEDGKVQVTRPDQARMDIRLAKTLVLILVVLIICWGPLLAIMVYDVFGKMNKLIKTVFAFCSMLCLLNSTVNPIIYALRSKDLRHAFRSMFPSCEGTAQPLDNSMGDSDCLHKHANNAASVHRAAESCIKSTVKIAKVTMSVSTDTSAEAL

With `CCCCCOc1c(OC)ccc2cc(C(=O)NCCc3ccc(F)cc3)c(=O)[nH]c12` [Example 3-8, 7-methoxy-2-oxo-8-pentyloxy-1,2-dihydroquinoline-3-carboxylic acid [2-(4-fluorophenyl)ethyl]amide], the Ki in test [1] (setting [3]) was found to be 81 nM; in test [2] (setting [4]) it was 0.019 nM. For the same molecule, in test [2] (setting [5]), the “C/S (Ki central type receptors / Ki peripheral type receptors)” value was found to be 4275.
In the case of `CCCCOc1c(OC)ccc2cc(C(=O)NCCc3ccncc3)c(=O)[nH]c12` [Example 3-16, 8-butoxy-7-methoxy-2-oxo-1,2-dihydroquinoline-3-carboxylic acid (2-pyridine-4-ylethyl)amide], the figures for the inhibition constant (Ki) in test [1] (setting [6]) and in test [2] (setting [4]) were 208 nM and 0.01 nM, respectively. In addition, the “C/S (Ki central type receptors / Ki peripheral type receptors)” value in test [2] (setting [5]) was determined as 20805.
Regarding `CCOc1c(OC)ccc2cc(C(=O)NCCc3ccc(F)cc3)c(=O)[nH]c12` [Example 3-18, 8-ethoxy-7-methoxy-2-oxo-1,2-dihydroquinoline-3-carboxylic acid [2-(4-fluorophenyl)ethyl]amide], the results for the Ki in test [1] (setting [6]) and in test [2] (setting [4]) were 1750 nM and 7.1 nM, respectively. The “C/S (Ki central type receptors / Ki peripheral type receptors)” value in test [2] (setting [5]) turned out to be 247.
With `CCCCCOc1c(OC)ccc2cc(C(=O)NCCc3ccccc3F)c(=O)[nH]c12` [Example 3-19, 7-methoxy-2-oxo-8-pentyloxy-1,2-dihydroquinoline-3-carboxylic acid [2-(2-fluorophenyl)ethyl]amide], the Ki in test [1] (setting [3]) was 49 nM; in test [2] (setting [4]), 0.18 nM. The “C/S (Ki central type receptors / Ki peripheral type receptors)” value in test [2] (setting [5]) stood at 272.
Regarding `CCCCCOc1c(OC)ccc2cc(C(=O)NCCc3cccc(F)c3)c(=O)[nH]c12` [Example 3-20, 7-methoxy-2-oxo-8-pentyloxy-1,2-dihydroquinoline-3-carboxylic acid [2-(3-fluorophenyl)ethyl]amide], the figures for the Ki in test [1] (setting [3]) and in test [2] (setting [4]) were 78 nM and 0.41 nM, respectively. Further, the “C/S (Ki central type receptors / Ki peripheral type receptors)” value in test [2] is 191.
In the case of `CCCCCOc1c(OC)ccc2cc(C(=O)NCCc3ccc(O)c(OC)c3)c(=O)[nH]c12` [Example 3-21, 7-methoxy-2-oxo-8-pentyloxy-1,2-dihydroquinoline-3-carboxylic acid [2-(4-hydroxy-3-methoxyphenyl)ethyl]amide], the Ki came out at 162 nM in test [1] (setting [6]) and 0.97 nM in test [2] (setting [4]). For the same molecule, the “C/S (Ki central type receptors / Ki peripheral type receptors)” value in test [2] (setting [5]) is 167.
On to `CCCCCOc1c(OC)ccc2cc(C(=O)NCCc3ccccc3)c(=O)[nH]c12` [Example 3-23, 7-methoxy-2-oxo-8-pentyloxy-1,2-dihydroquinoline-3-carboxylic acid (2-phenylethyl)amide], for which the Ki in test [1] (setting [6]) was determined as 39 nM; in test [2] (setting [7]) it was 0.2 nM. Also, in test [2] (setting [5]), the “C/S (Ki central type receptors / Ki peripheral type receptors)” value is 194.
`CCCCCOc1c(OC)ccc2cc(C(=O)NCc3ccc(F)cc3)c(=O)[nH]c12` [Example 3-25, 7-methoxy-2-oxo-8-pentyloxy-1,2-dihydroquinoline-3-carboxylic acid (4-fluorobenzyl)amide]: the inhibition constant (Ki) in test [1] (setting [6]) worked out at 444 nM; in test [2] (setting [4]), 1.29 nM. Besides, the “C/S (Ki central type receptors / Ki peripheral type receptors)” value in test [2] (setting [5]) is on record as 344.
Take `COc1ccc2cc(C(=O)NCCc3ccc(F)cc3)c(=O)[nH]c2c1OC` [Example 3-31, 7,8-dimethoxy-2-oxo-1,2-dihydroquinoline-3-carboxylic acid [2-(4-fluorophenyl)ethyl]amide]: the Ki in test [1] (setting [6]) worked out at 159 nM; in test [2] (setting [7]), 0.16 nM. For the same molecule, in test [2] (setting [5]), the “C/S (Ki central type receptors / Ki peripheral type receptors)” value is recorded as 995.
As to `CCCCCOc1cc2cc(C(=O)NCCc3ccc(F)cc3)c(=O)[nH]c2cc1OC` [Example 3-32, 7-methoxy-2-oxo-6-pentyloxy-1,2-dihydroquinoline-3-carboxylic acid [2-(4-fluorophenyl)ethyl]amide], the inhibition constant Ki was 2400 nM in test [1] (setting [6]) and 0.036 nM in test [2] (setting [4]). For the same molecule, the “C/S (Ki central type receptors / Ki peripheral type receptors)” value in test [2] (setting [5]) worked out at 66604.
